Source: US20110166121A1 (LG LIFE SCIENCES LTD., priority 2008, published 2011)

Legend:
[1] = test system: Human platelet aggregation caused by ADP; experiment: Inhibition of ADP-induced platelet aggregation (Mimic-human PRP); format: cell-based; conditions: 20 μM ADP, human platelet concentrate diluted with PPP, absorption at 595 nm
In short: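 Human PRP diluted with PPP to 3–4×10^8 platelets/mL was preincubated 20 min at room temperature with compound (0.01–30 μM, DMSO), then stimulated with 20 μM ADP. Aggregation read as A595 increase at 3 min versus 0 and 20 μM ADP controls; Ki from sigmoidal non-linear regression.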

[2] = molecular target: T1, Human P2Y12 receptor (Homo sapiens, UniProt Q9H244); experiment: Human P2Y12 receptor cell membrane binding assay with [3H] 2-Mes-ADP; conditions: 1 nM [3H] 2-Mes-ADP; for IC50: membranes of HEK cells expressing P2Y12 receptor, read-out: Binding activity (IC50); for inhibition at 30 µM: 30 μM compound
T1 construct: expressed in transfected cells; host or cells: HEK cells
T1 sequence (Q9H244 whole entry): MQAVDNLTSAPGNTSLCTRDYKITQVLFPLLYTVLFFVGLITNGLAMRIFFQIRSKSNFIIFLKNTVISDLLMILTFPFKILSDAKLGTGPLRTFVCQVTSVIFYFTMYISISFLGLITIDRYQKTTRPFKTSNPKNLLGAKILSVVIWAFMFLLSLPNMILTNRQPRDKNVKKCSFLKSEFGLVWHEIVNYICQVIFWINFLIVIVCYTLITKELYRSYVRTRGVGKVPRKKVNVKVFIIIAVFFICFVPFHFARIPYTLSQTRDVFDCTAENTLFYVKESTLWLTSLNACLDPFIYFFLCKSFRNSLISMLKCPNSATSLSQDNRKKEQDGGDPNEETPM
Procedure: Human P2Y12 Receptor Cell Membrane Binding Assay with [^3H] 2-Mes-ADP
Whether test compounds bind to P2Y12 receptor is measured by [3H]-2MesADP binding in HEK cells expressing P2Y12 receptor. The efficacy according to the amount of test compound can be known through the above test, competitive binding test to P2Y12 receptor, in which the binding material (2-Mes-ADP) is labeled with radioactivity isotope and then the extent of inhibition against the binding of radioactively labeled material is measured.
Preparation of P2Y12 Membrane Protein Fraction
Harvested P2Y12 cells were resuspended with Hypotonic buffer (10 mM HEPES, 10 mM NaCl, 1 mM EDTA, 1 mM EGTA pH 7.4) containing protease inhibitor cocktail. Following the incubation on ice for 15 min, cells were homogenized on ice (Glass/Teflon homogenizer; 1,000 rpm, 10 strokes). The supernant was taken from centrifugation at 500×g for 15 min and then recentrifuged the supernant at 30,000 rpm for 30 min. The membrane pellet was adjusted to 1 mg/mL concentration and stored at −80° C.
P2Y12 Receptor Cell Membrane Binding Assay with [3H] 2-Mes-ADP
The volume of 100 μL of 200 μg membrane protein was aliquoted into 96 well plate. 50 μL volume of test compounds and [^3H] 2-Mes-ADP (final: 1 nM) were added into each well. The total reaction of 0.2 ml/well was incubated for 1 hour at R.T. The reaction was terminated by filtration through GF/B filter using a 96-well cell harvester. […] Radioactivity bound to P2Y12 receptor membrane was counted in a scintillation counter. Total binding was determined with CPM of test group having no compound and non-specific binding was determined with CPM of test group containing 10 μM 2-Mes-ADP. Binding inhibition percent was calculated as follows: [100−(specific binding in the presence of test material/specific binding in the absence of test material×100)].

Structure (SMILES)	IC50 [2] [µM]	inhibition at 30 µM [2] [%]	Ki [1] [µM]
CCCc1cc2c(N3CCn4c(nnc4C(F)(F)F)C3)nc(N3CCNC(=O)C3)nc2s1 [Example 1-1, 4-[6-Propyl-4-(3-trifluoromethyl-5,6-dihydro-8H-[1,2,4]triazolo[4,3-a]pyrazin-7-yl)-thieno[2,3-d]pyrimidin-2-yl]-piperazin-2-one]	0.02		0.13
CCCc1cc2c(N3CCn4c(nnc4C(F)(F)F)C3)nc(N3CCN(C)CC3)nc2s1 [Example 1-3, 7-[2-(4-Methyl-piperazin-1-yl)-6-propyl-thieno[2,3-d]pyrimidin-4-yl]-3-trifluoromethyl-5,6,7,8-tetrahydro-[1,2,4]triazolo[4,3-a]pyrazine]	0.092		0.164
CCCc1cc2c(N3CCn4c(nnc4C(F)(F)F)C3)nc(N3CCNCC3)nc2s1 [Example 1-4, 7-(2-piperazin-1-yl-6-propyl-thieno[2,3-d]pyrimidin-4-yl)-3-trifluoromethyl-5,6,7,8-tetrahydro-[1,2,4]triazolo[4,3-a]pyrazine]	0.064		0.3
CCc1cc2c(N3CCn4cc(C(F)(F)F)nc4C3)nc(N3CCNC(=O)C3)nc2s1 [Example 6-22, 4-[6-Ethyl-4-(2-trifluoromethyl-5,6-dihydro-8H-imidazo[1,2-a]pyrazin-7-yl)-thieno[2,3-d]pyrimidin-2-yl]-piperazin-2-one]	10		
CCc1cc2c(N3CCn4cc(C(F)(F)F)nc4C3)nc(OCC(O)CO)nc2s1 (centres unmarked) [Example 6-23, 3-[6-Ethyl-4-(2-trifluoromethyl-5,6-dihydro-8H-imidazo[1,2-a]pyrazin-7-yl)-thieno[2,3-d]pyrimidin-2-yloxy]-propane-1,2-diol]	12		
CCc1cc2c(N3CCc4[nH]ncc4C3)nc(N3CCNC(=O)C3)nc2s1 [Example 6-24, 4-[6-Ethyl-4-(1,4,6,7-tetrahydro-pyrazolo[4,3-c]pyridin-5-yl)-thieno[2,3-d]pyrimidin-2-yl]-piperazin-2-one]	30		
CCc1cc2c(N3CCc4[nH]ncc4C3)nc(OCC(O)CO)nc2s1 (centres unmarked) [Example 6-25, 3-[6-Ethyl-4-(1,4,6,7-tetrahydro-pyrazolo[4,3-c]pyridin-5-yl)-thieno[2,3-d]pyrimidin-2-yloxy]-propane-1,2-diol]		38.6	
CCc1cc2c(N3CCc4[nH]nc(C(F)(F)F)c4C3)nc(N3CCNC(=O)C3)nc2s1 [Example 6-26, 4-[6-Ethyl-4-(3-trifluoromethyl-1,4,6,7-tetrahydro-pyrazolo[4,3-c]pyridin-5-yl)-thieno[2,3-d]pyrimidin-2-yl]-piperazin-2-one]	16.4		
CCc1cc2c(N3CCc4ccccc4C3)nc(N3CCNC(=O)C3)nc2s1 [Example 6-27, 4-[4-(3,4-Dihydro-1H-isoquinolin-2-yl)-6-ethyl-thieno[2,3-d]pyrimidin-2-yl]-piperazin-2-one]	10		
CCc1cc2c(N3CCc4cc(OC)c(OC)cc4C3)nc(N3CCNC(=O)C3)nc2s1 [Example 6-28, 4-[4-(6,7-Dimethoxy-3,4-dihydro-1H-isoquinolin-2-yl)-6-ethyl-thieno[2,3-d]pyrimidin-2-yl]-piperazin-2-one]	5.6		
CCc1cc2c(N3CCc4c([nH]c5ccccc45)C3)nc(N3CCNC(=O)C3)nc2s1 [Example 6-29, 4-[6-Ethyl-4-(1,3,4,9-tetrahydro-beta-carbolin-2-yl)-thieno[2,3-d]pyrimidin-2-yl]-piperazin-2-one]	29.8		
CCc1cc2c(N3CCc4c(nc(C(F)(F)F)nc4C(F)(F)F)C3)nc(N3CCNC(=O)C3)nc2s1 [Example 6-31, 4-[4-(2,4-Bis-trifluoromethyl-5,8-dihydro-6H-pyrido[3,4-d]pyrimidin-7-yl)-6-ethyl-thieno[2,3-d]pyrimidin-2-yl]-piperazin-2-one]	4.66		
CCc1cc2c(N3CCc4c(nc(C(F)(F)F)nc4C(F)(F)F)C3)nc(OCC(O)CO)nc2s1 (centres unmarked) [Example 6-32, 3-[4-(2,4-Bis-trifluoromethyl-5,8-dihydro-6H-pyrido[3,4-d]pyrimidin-7-yl)-6-ethyl-thieno[2,3-d]pyrimidin-2-yloxy]-propane-1,2-diol]	4.64		
CCc1cc2c(N3CCc4c([nH]n(C)c4=O)C3)nc(N3CCNC(=O)C3)nc2s1 [Example 6-41, 6-[6-Ethyl-2-(3-oxo-piperazin-1-yl)-thieno[2,3-d]pyrimidin-4-yl]-2-methyl-1,2,4,5,6,7-hexahydro-pyrazolo[3,4-c]pyridin-3-one]		23.6	
CCc1cc2c(N3CCc4c([nH]n(C)c4=O)C3)nc(OCC(O)CO)nc2s1 (centres unmarked) [Example 6-42, 6-[2-(2,3-Dihydroxy-propoxy)-6-ethyl-thieno[2,3-d]pyrimidin-4-yl]-2-methyl-1,2,4,5,6,7-hexahydro-pyrazolo[3,4-c]pyridin-3-one]		26.4	
CCc1cc2c(N3CCc4c([nH]n(CCO)c4=O)C3)nc(N3CCNC(=O)C3)nc2s1 [Example 6-43, 6-[6-Ethyl-2-(3-oxo-piperazin-1-yl)-thieno[2,3-d]pyrimidin-4-yl]-2-(2-hydroxy-ethyl)-1,2,4,5,6,7-hexahydro-pyrazolo[3,4-c]pyridin-3-one]	46.4		
CCc1cc2c(N3CCc4c([nH]n(-c5ccccc5)c4=O)C3)nc(N3CCNC(=O)C3)nc2s1 [Example 6-44, 6-[6-Ethyl-2-(3-oxo-piperazin-1-yl)-thieno[2,3-d]pyrimidin-4-yl]-2-phenyl-1,2,4,5,6,7-hexahydro-pyrazolo[3,4-c]pyridin-3-one]	21.5		

Further lines, with some results ahead:

IC50 [2] [µM]	inhibition at 30 µM [2] [%]	Structure (SMILES)	Ki [1] [µM]
1.04		CCc1cc2c(N3CCc4c(ncnc4C(F)(F)F)C3)nc(N3CCNC(=O)C3)nc2s1 [Example 6-30, 4-[6-Ethyl-4-(4-trifluoromethyl-5,8-dihydro-6H-pyrido[3,4-d]pyrimidin-7-yl)-thieno[2,3-d]pyrimidin-2-yl]-piperazin-2-one]	
2.37		CCCc1cc2c(N3CCc4c(nc(C(F)(F)F)nc4C(F)(F)F)C3)nc(N3CCNC(=O)C3)nc2s1 [Example 6-33, 4-[4-(2,4-Bis-trifluoromethyl-5,8-dihydro-6H-pyrido[3,4-d]pyrimidin-7-yl)-6-propyl-thieno[2,3-d]pyrimidin-2-yl]-piperazin-2-one]	
0.12		CCc1cc2c(N3CCc4c(nc(C)nc4C(F)(F)F)C3)nc(N3CCNC(=O)C3)nc2s1 [Example 6-34, 4-[6-Ethyl-4-(2-methyl-4-trifluoromethyl-5,8-dihydro-6H-pyrido[3,4-d]pyrimidin-7-yl)-thieno[2,3-d]pyrimidin-2-yl]-piperazin-2-one]	
2.3		CCc1cc2c(N3CCc4c(nc(C)nc4C(F)(F)F)C3)nc(OCC(O)CO)nc2s1 (centres unmarked) [Example 6-35, 3-[6-Ethyl-4-(2-methyl-4-trifluoromethyl-5,8-dihydro-6H-pyrido[3,4-d]pyrimidin-7-yl)-thieno[2,3-d]pyrimidin-2-yloxy]-propane-1,2-diol]	
0.64		CCCc1cc2c(N3CCc4c(nc(C)nc4C(F)(F)F)C3)nc(N3CCNC(=O)C3)nc2s1 [Example 6-36, 4-[4-(2-Methyl-4-trifluoromethyl-5,8-dihydro-6H-pyrido[3,4-d]pyrimidin-7-yl)-6-propyl-thieno[2,3-d]pyrimidin-2-yl]-piperazin-2-one]	
0.4		CCc1cc2c(N3CCc4c(nc(-c5ccccc5)nc4C(F)(F)F)C3)nc(N3CCNC(=O)C3)nc2s1 [Example 6-37, 4-[6-Ethyl-4-(2-phenyl-4-trifluoromethyl-5,8-dihydro-6H-pyrido[3,4-d]pyrimidin-7-yl)-thieno[2,3-d]pyrimidin-2-yl]-piperazin-2-one]	
4.42		CCCc1cc2c(N3CCc4c(nc(-c5ccccc5)nc4C(F)(F)F)C3)nc(N3CCNC(=O)C3)nc2s1 [Example 6-38, 4-[4-(2-Phenyl-4-trifluoromethyl-5,8-dihydro-6H-pyrido[3,4-d]pyrimidin-7-yl)-6-propyl-thieno[2,3-d]pyrimidin-2-yl]-piperazin-2-one]	
1.5		CCc1cc2c(N3CCc4c(nc(-c5ccoc5)nc4C(F)(F)F)C3)nc(N3CCNC(=O)C3)nc2s1 [Example 6-39, 4-[6-Ethyl-4-(2-furan-3-yl-4-trifluoromethyl-5,8-dihydro-6H-pyrido[3,4-d]pyrimidin-7-yl)-thieno[2,3-d]pyrimidin-2-yl]-piperazin-2-one]	
1.95		CCc1cc2c(N3CCc4c(nc(-c5ccoc5)nc4C(F)(F)F)C3)nc(NCC(O)CO)nc2s1 (centres unmarked) [Example 6-40, 3-[6-Ethyl-4-(2-furan-3-yl-4-trifluoromethyl-5,8-dihydro-6H-pyrido[3,4-d]pyrimidin-7-yl)-thieno[2,3-d]pyrimidin-2-ylamino]-propane-1,2-diol]	
